Here are results for 2 molecules from patent US9931410B2, “Nanoparticles for targeted delivery of multiple therapeutic agents and methods of use” (priority 2012, dated 2018).

Data set [1] is described as follows: Drug loading and encapsulation efficiency (AAS for platinum, spectrophotometry for irinotecan). It is filed as physicochemical. On the procedure:
Particle sizing was performed using dynamic light scattering (DLS) with a Zetasizer Nano ZS instrument (Malvern Instruments Ltd., U.K.). For each measurement, 100 μL or more of the sample was loaded in a disposable low-volume cuvette. Transmission electron microscopy (TEM) experiments were carried out on a JEOL 2011 instrument at an acceleration voltage of 200 kV. The TEM sample was prepared by depositing 10 μL of the nanoparticle suspension (1.0 mg/mL) onto a 300-mesh carbon-coated copper grid. Samples were blotted away after 30 minutes incubation and the grids were negatively stained for 20 minutes at room temperature with a sterile-filtered 1% (w/v) uranyl acetate aqueous solution. Drug loading and encapsulation efficiency (EE) were determined by quantifying the amount of drug in the nanoparticles. Drug loading is defined as the mass fraction of the drug in the nanoparticles, whereas EE is the fraction of initial drug that is encapsulated by the nanoparticles. After synthesis, nanoparticles were dissolved in a solution 50/50 acetonitrile/water and vortexed for several hours to induce nanoparticle dissociation. The amount of platinum inside the nanoparticles was detected using Atomic Absorption Spectroscopy (AAS), from which the load of cisplatin was calculated. Irinotecan was detected using spectrophotometry on a TECAN 1000 plate reader at a wavelength of 385 nm. A calibration curve with known concentrations of irinotecan was prepared, and the amount of irinotecan encapsulated in the nanoparticles was calculated using the calibration curve.

Data set [2] is described as follows: Drug release from nanoparticles over time in phosphate buffered saline. It is filed as physicochemical. The settings on record: PLGA-PEG-LIG nanoparticles, irinotecan to cisplatin ratio 2:1, phosphate buffered saline. On the procedure: FIG. 8 is a graph showing the percent of irinotecan and platinum release from PLGA-PEG-LIG nanoparticles over time in phosphate buffered saline.
Next, the amount of cisplatin and irinotecan encapsulated in the nanoparticles as well their encapsulation efficiency (EE) was determined (FIG. 7). As expected, cisplatin was encapsulated with very high efficiency (>80%) due to the hydrophobic-hydrophobic interaction PLGA and PLA. […] This might be due to hydrophilic-hydrophilic interactions of the platinum prodrug and irinotecan. […] The percent drug release of irinotecan and platinum of these nanoparticles over time was also assessed. Irinotecan was released from these nanoparticles at a faster rate compared to the release of the Pt-containing chemotherapeutic agent (FIG. 8).

The mark [3] stands for this setting: after self-assembly with PLGA-PEG.
Setting [4] is: mixed with both PLGA-PEG and PLA-cisplatin.

For the molecule `N.N.[Cl][Pt][Cl]` [cisplatin], the “encapsulation efficiency of cisplatin” value in data set [1] (cisplatin as PLA-cisplatin in nanoparticles) is more than 80%.
Consider `CCc1c2c(nc3ccc(OC(=O)N4CCC(N5CCCCC5)CC4)cc13)-c1cc3c(c(=O)n1C2)COC(=O)[C@]3(O)CC` [Irinotecan, irinotecan], for which, in data set [1] (setting [3]), the “drug loading of irinotecan” value is on record as 0.5% and the “encapsulation efficiency (EE) of irinotecan” value came out at 10%. In data set [1] (setting [4]), the “drug loading of irinotecan” value is on record as 2.2% and the “encapsulation efficiency (EE) of irinotecan” value is given as 44%. The “rate of drug release from nanoparticles compared to the Pt-containing agent” value in data set [2] was “faster rate”.
